How the values were obtained:
tobacco BY-2 cells [1] = experiment: Nicotine alkaloid accumulation in methyl jasmonate elicited BY-2 cells (GC-MS); type: cell-based, Nicotiana tabacum
Procedure: (§1) Nicotiana tabacum BY-2 cells were cultured in modified Linsmaier-Skoog (LS) medium (Linsmaier & Skoog, 1965), as described by Nagata & Kumagai (1999). First, the growth curve of BY-2 cell culture was determined (FIG. 2) and the late exponential phase was used in elicitation experiments. Since the ability of high auxin concentration to inhibit the biosynthesis of nicotine is well known (Hibi et al., 1994; Ishikawa, et al., 1994), the six-day-old culture was prior elicitation washed and diluted 10-fold with fresh hormone free medium. After 12 hours, the cells were treated with methyl jasmonate (MeJA). MeJA (cis-form, Duchefa M0918) dissolved in dimethyl sulfoxide (DMSO) and was added to the culture medium at a final concentration of 50 μM. Same amount of DMSO alone served as a control. Samples for cDNA-AFLP analysis were taken at 0, 1, 2, 3, 4, 5, 6, 7, 8, 9, 10, 11, 12, 13, 14, 15, 16, 18, 20, 24, 36, 48, and 98 hours after jasmonate addition or at 0, 2, 4, 6, 8, 10, 12, 14, 16, 24, 36, 48, and 98 hours after DMSO addition, respectively. For alkaloid analysis, the samples were taken at 0, 12, 14, 24, 48 and 98 hours. Three replicate shake flasks pooled together yielded the total culture volume of 75 ml. After filtering (Miracloth) under vacuum the cells were lyophilized. Lyophilized cell samples were extracted for GC-MS analysis by a modified method described by Furuya et al. (1971). Cells were weighed and 25 μg of internal standard (5α-cholestan) was added. The samples were made alkaline with ammonia (10% (v/v), 1 ml) and water (2 ml) was added. Alkaloids were extracted by vortexing with 2 ml of dicloromethane. After 30 min the samples were centrifuged (2000 rpm, 10 min) and the lower organic layer was separated and transferred into glass vials. The samples were concentrated to 50 μl and 3 μl aliquots were injected to GC-MS. In some cases (for derivatization of free fatty acids and more polar compounds) the samples were silylated prior to GC-MS analysis. After evaporation to dryness, 25 μl of dichloromethane was added and silylation was performed by N-methyl-N-(trimethylsilyl)-trifluoro-acetamide (Pierce, Rockford, USA) at 120° C. for 20 min.

NsPMT2 promoter = NsPMT2 promoter EGFP-GUS reporter in transgenic BY-2 cell line 7 (GUS activity); type: cell-based, Nicotiana sylvestris
From the text: The PMT gene encodes the enzyme putrescine N-methyltransferase, catalysing the first committed step in the production of nicotinic alkaloids. Transcripts of Nicotiana sp. PMT genes are reported to be up regulated by methyl jasmonate. […] We have applied this knowledge and constructed a new reporter construct, called pHGWFS7-ppmt2, harbouring a EGFP-GUS fusion reporter gene (in Gateway® vector pHGWFS7; Karimi et al., Trends Plant Sci. 2002, 7(5):193-195), driven by the NsPMT2 promoter. To this end, primers were designed for the Adapter attB PCR protocol (InVitroGen) to amplify the NsPMT2 5′flanking region covering nucleotides −1713 to +3 (Table 3).
The pHGWFS7-ppmt2 construct was subsequently introduced in the ternary Agrobacterium tumefaciens transformation system, LBA4404.pBBR1-MCS-5.virGN54D (van der Fits et al., Plant Mol. Biol. 2000, 43(4):495-502), allowing efficient transformation of tobacco BY-2 cell cultures. Different independent transgenic lines were established and the jasmonate inducibility of the promoter in these transgenic BY-2 cells was confirmed (Table 4).
To illustrate the potential of this approach, BY-2-pmt2 cell line 7 was double transformed with the pK7WGD2-C330 construct, harbouring the MJM tag with SEQ ID No 148, an AP2-domain transcription factor encoding gene (also designated as C330 in this application), driven by the constitutive p35S promoter.

[2] = system: BY-2 reporter cell line (line 7); experiment: Nicotine alkaloid content of BY-2 reporter cell line super-transformed with C330; type: cell-based, Nicotiana tabacum; settings: line 7 + C330 vector, −2,4D + MeJA
Procedure: In a next step, we evaluated if there was a correlation between the GUS-activity in the BY-2 reporter cell line and nicotine alkaloid accumulation. […] Measurements in tables 6A and 6B were carried out in the presence or absence of synthetic auxins. “−2,4 D” means in the absence of dichlorophenoxy-acetic acid. “NAA” means in the presence of alfa-naphtalene-acetic acid. “DW” means dry weight, “MeJA” is with the addition of the elicitor methyl jasmonate, “DMSO” means with the addition of dimethylsulfoxide instead of MeJA.
as §1

tobacco BY-2 cells [3] = experiment: cDNA-AFLP transcript profiling of jasmonate-elicited BY-2 cells; type: cell-based, Nicotiana tabacum; settings: 50 μM methyl jasmonate vs DMSO-treated cells, approximately 20,000 tags analyzed
Procedure: Total RNA was prepared by LiCl precipitation (Sambrook, 1989). Starting from 5 μg total RNA, first-strand cDNA was synthesized by reverse transcription with a biotinylated oligo-dT25 primer (Genset, Paris, France) and Superscript II (Life Technologies, Gaithersburg, Md.). Second-strand synthesis was performed by strand displacement with Escherichia coli ligase (Life Technologies), DNA polymerase I (USB, Cleveland, Ohio) and RNAse-H (USB).
500 nanograms of double-stranded cDNA was used for AFLP analysis as described (Vos et al., 1995; Bachem et al., 1996) with modifications. The restriction enzymes used were BstYI and MseI (Biolabs) and the digestion was performed in two separate steps. […]
Scanned gel images were quantitatively analyzed using the AFLP QuantarPro image analysis software (Keygene N. V., Wageningen, N L). This software was designed for accurate lane definition, fragment detection, and quantification of band intensities. All visible AFLP fragments were scored and individual band intensities in each lane were measured. […] The correction factors were calculated based on constant bands throughout the time course. […] A coefficient of variation (CV) was calculated by dividing […]. […]

Structure (SMILES): CC/C=C\CC1C(=O)CCC1CC(=O)OC (centres unmarked) [MeJA, methyl jasmonate]
- nicotine, anabasine, anatalline and anatabine content (tobacco BY-2 cells [1]; BY-2 cells elicited vs control samples): marked increase
- highest concentration of anatabine (tobacco BY-2 cells [1]; BY-2 cells, 50 μM MeJA): 800 µg/g (d.w.)
- maximum concentration of nicotine relative to anatabine (dry weight basis) (tobacco BY-2 cells [1]; BY-2 cells, 50 μM MeJA): 4%
- start of anatabine accumulation after elicitation (tobacco BY-2 cells [1]; BY-2 cells, 50 μM MeJA): 24 h
- start of nicotine accumulation after elicitation (tobacco BY-2 cells [1]; BY-2 cells, 50 μM MeJA): 14 h
- time after which anabasine and two anatalline isomers increased (tobacco BY-2 cells [1]; BY-2 cells, 50 μM MeJA): 48 h
- GUS activity (NsPMT2 promoter; BY-2 cell line 7, +MeJA, 0 h (Table 4)): 0.8 ± 1.0 units/mg protein/minute
- GUS activity (NsPMT2 promoter; BY-2 cell line 7, +MeJA, 4 h (Table 4)): 2.0 ± 0.3 units/mg protein/minute
- GUS activity (NsPMT2 promoter; BY-2 cell line 7, +MeJA, 8 h (Table 4)): 6.4 ± 0.3 units/mg protein/minute
- GUS activity (NsPMT2 promoter; BY-2 cell line 7, +MeJA, 14 h (Table 4)): 29.1 ± 1.9 units/mg protein/minute
- GUS activity (NsPMT2 promoter; BY-2 cell line 7, +MeJA, 24 h (Table 4)): 92.2 ± 6.4 units/mg protein/minute
- GUS activity (NsPMT2 promoter; BY-2 line 7, +MeJA, 0 h (Table 5)): 0.0 ± 0.0 units/mg protein/minute
- GUS activity (NsPMT2 promoter; BY-2 line 7, +MeJA, 24 h (Table 5)): 399.0 ± 56.4 units/mg protein/minute
- GUS activity (NsPMT2 promoter; BY-2 line 7, +MeJA, 48 h (Table 5)): 663.0 ± 33.6 units/mg protein/minute
- GUS activity (NsPMT2 promoter; BY-2 line 7-C330, +MeJA, 0 h): 1.0 ± 0.1 units/mg protein/minute
- GUS activity (NsPMT2 promoter; BY-2 line 7-C330, +MeJA, 24 h): 276.7 ± 55.9 units/mg protein/minute
- GUS activity (NsPMT2 promoter; BY-2 line 7-C330, +MeJA, 48 h): 347.8 ± 2.0 units/mg protein/minute
- Anatabine ([2]; 0 h): 0.038 mg/g DW
- Nicotine ([2]; 0 h): 0.008 mg/g DW
- Anabasine ([2]; 24 h): 0.099 Mg/g DW
- Anatabine ([2]; 24 h): 2.065 mg/g DW
- Nicotine ([2]; 24 h): 0.271 mg/g DW
- Anabasine ([2]; 48 h): 0.297 Mg/g DW
- Anatabine ([2]; 48 h): 3.541 mg/g DW
- Nicotine ([2]; 48 h): 0.283 mg/g DW
- differential transcript tags (tobacco BY-2 cells [3]): 591

— US20060041962A1, “Genes and uses thereof to modulate secondary metabolite biosynthesis” (priority 2002, published 2006)
